ChEMBL document CHEMBL1201862, “PubChem BioAssay data set” (2004)
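In this assay, cells in 96-well plates receive the compound at five concentrations for 48 hours. Endpoints are linearly interpolated between the surrounding concentrations. GI50 marks 50% less growth.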 The source made the active and inactive calls. No stated cut-off is given here; in the data, active = GI50 up to about 1.1 µM and inactive = higher.

Experiments:
Assay in all cases: DTP human tumour cell line panel, 48 h
SNB-75 = system: SNB-75
UACC-257 = system: UACC-257
CCRF-CEM = system: CCRF-CEM
U-251 = system: U-251
DU-145 = system: DU-145
OVCAR-8 = system: OVCAR-8
MDA-MB-231 = system: MDA-MB-231
SK-OV-3 = system: SK-OV-3
SK-MEL-5 = system: SK-MEL-5
HCT-15 = system: HCT-15
SW-620 = system: SW-620
UACC-62 = system: UACC-62
A549 = system: A549
Hs-578T = system: Hs-578T
NCI-H522 = system: NCI-H522
OVCAR-3 = system: OVCAR-3
K562 = system: K562
SK-MEL-2 = system: SK-MEL-2

SMILES	GI50 (SNB-75)	GI50 (UACC-257)	GI50 (CCRF-CEM)	GI50 (U-251)	GI50 (DU-145)	GI50 (OVCAR-8)	GI50 (MDA-MB-231)	GI50 (SK-OV-3)	GI50 (SK-MEL-5)	GI50 (HCT-15) [µM]	GI50 (SW-620)	GI50 (UACC-62)	GI50 (A549)	GI50 (Hs-578T)	GI50 (NCI-H522)	GI50 (OVCAR-3)	GI50 (K562)	GI50 (SK-MEL-2)
CC/C=C/C(=O)CC(O)(C(F)(F)F)C(F)(F)F	> 100 µM (inactive)	> 100 µM (inactive)	73.5 µM (inactive)	> 100 µM (inactive)	> 100 µM (inactive)	> 100 µM (inactive)	> 100 µM (inactive)	> 100 µM (inactive)	> 100 µM (inactive)	> 100	> 100 µM (inactive)	> 100 µM (inactive)	> 100 µM (inactive)	19 µM (inactive)				
c1ccc(CNc2ncnc3nn[nH]c23)cc1	> 100 µM (inactive)	> 100 µM (inactive)	> 100 µM (inactive)	> 100 µM (inactive)	> 100 µM (inactive)	> 100 µM (inactive)	> 100 µM (inactive)	> 100 µM (inactive)	> 100 µM (inactive)	> 100	> 100 µM (inactive)	> 100 µM (inactive)	> 100 µM (inactive)		> 100 µM (inactive)	> 100 µM (inactive)	> 100 µM (inactive)	> 100 µM (inactive)
CNC(=O)/C(C#N)=C(\N)N1CCCC1			> 100 µM (inactive)	> 100 µM (inactive)	> 100 µM (inactive)	> 100 µM (inactive)	> 100 µM (inactive)	> 100 µM (inactive)	> 100 µM (inactive)	> 100	> 100 µM (inactive)	> 100 µM (inactive)	> 100 µM (inactive)	> 100 µM (inactive)	> 100 µM (inactive)	> 100 µM (inactive)	> 100 µM (inactive)	> 100 µM (inactive)
c1ccc(C(=NNc2nc3ccccc3o2)c2ccccn2)nc1		0.0494 µM (active)	< 0.01 µM (active)	0.0998 µM (active)	0.188 µM (active)	0.0301 µM (active)	0.055 µM (active)	0.0292 µM (active)	0.0818 µM (active)	0.0299	0.024 µM (active)	0.0993 µM (active)	0.151 µM (active)	0.447 µM (active)	0.0776 µM (active)		0.0327 µM (active)	0.0883 µM (active)
Cc1ccc2c(c1)C/C(=C\c1ccccc1C(=O)O)C2=O	> 100 µM (inactive)	> 100 µM (inactive)	> 100 µM (inactive)	> 100 µM (inactive)	> 100 µM (inactive)	> 100 µM (inactive)			52.6 µM (inactive)	> 100	> 100 µM (inactive)	> 100 µM (inactive)	> 100 µM (inactive)	> 100 µM (inactive)	> 100 µM (inactive)	> 100 µM (inactive)	98.2 µM (inactive)	> 100 µM (inactive)
COc1ccc(-c2cc(-c3ccccc3)n(C3OC(COC(C)=O)C(OC(C)=O)C(OC(C)=O)C3OC(C)=O)c(=S)c2C#N)cc1 (stereo unspecified)	6.38 µM (inactive)			6.79 µM (inactive)	11.7 µM (inactive)	3.58 µM (inactive)	4.79 µM (inactive)	18.8 µM (inactive)	6.71 µM (inactive)	26.1	13.9 µM (inactive)	4.79 µM (inactive)	10.6 µM (inactive)	5.71 µM (inactive)	5.37 µM (inactive)	11.4 µM (inactive)	3.61 µM (inactive)	
CCCCC1Cc2ccccc2-c2n1c1ccccc1[n+]2C (stereo unspecified)		1.87 µM (inactive)	10.9 µM (inactive)	3.1 µM (inactive)	33.7 µM (inactive)	21.9 µM (inactive)	22.2 µM (inactive)	35.9 µM (inactive)	4.54 µM (inactive)	95.5	23.7 µM (inactive)			12.1 µM (inactive)	3.87 µM (inactive)	4.15 µM (inactive)	2.49 µM (inactive)	8.53 µM (inactive)
O=C1C=C(N2CCCC2)C(=O)c2c(O)ccc(O)c21	> 10 µM (inactive)	> 10 µM (inactive)	1.71 µM (inactive)		> 10 µM (inactive)	> 10 µM (inactive)	> 10 µM (inactive)	> 10 µM (inactive)	4.6 µM (inactive)	> 10	> 10 µM (inactive)	7.28 µM (inactive)	> 10 µM (inactive)	> 10 µM (inactive)		> 10 µM (inactive)	2.92 µM (inactive)	> 10 µM (inactive)
FC(F)(F)c1ccccc1C1SCC2=Nc3ccccc3CN21 (stereo unspecified)	14 µM (inactive)	15.9 µM (inactive)	26.5 µM (inactive)	28.4 µM (inactive)	12.8 µM (inactive)	16.9 µM (inactive)	23.5 µM (inactive)	18.6 µM (inactive)	14.7 µM (inactive)	14.1	32.4 µM (inactive)	13.2 µM (inactive)	14.5 µM (inactive)	12.3 µM (inactive)			21.8 µM (inactive)	
O=C(Nn1c(-c2ccccc2)nc2ccccc2c1=O)c1ccc(CS)cc1	39.7 µM (inactive)	> 100 µM (inactive)	5.89 µM (inactive)	27.6 µM (inactive)	39.4 µM (inactive)	57.1 µM (inactive)	37 µM (inactive)	82.8 µM (inactive)	11.8 µM (inactive)		31.1 µM (inactive)	27.7 µM (inactive)	36.7 µM (inactive)	35.6 µM (inactive)	52.2 µM (inactive)	67.6 µM (inactive)	38.2 µM (inactive)	
CCOC(=O)c1sc2nc1CSc1sc(=S)sc1SCc1nc(sc1C(=O)OCC)-c1nc(c(C(=O)OCC)s1)CSc1sc(=S)sc1SCc1nc-2sc1C(=O)OCC	> 10 µM (inactive)	> 10 µM (inactive)	> 10 µM (inactive)	> 10 µM (inactive)		> 10 µM (inactive)	> 10 µM (inactive)	> 10 µM (inactive)	> 10 µM (inactive)	> 10	> 10 µM (inactive)	> 10 µM (inactive)	> 10 µM (inactive)	> 10 µM (inactive)	> 10 µM (inactive)	> 10 µM (inactive)	> 10 µM (inactive)	> 10 µM (inactive)
CC(C)=NOC(=O)Nc1cccc2c1OCO2	> 100 µM (inactive)	> 100 µM (inactive)		> 100 µM (inactive)	> 100 µM (inactive)	> 100 µM (inactive)	> 100 µM (inactive)	> 100 µM (inactive)	> 100 µM (inactive)	> 100	> 100 µM (inactive)	32.5 µM (inactive)	> 100 µM (inactive)	28.8 µM (inactive)	> 100 µM (inactive)	> 100 µM (inactive)		> 100 µM (inactive)
Cc1ccc(/C=C/C(=O)c2c([O-])on[n+]2-c2ccccc2)cc1		3.64 µM (inactive)	1.36 µM (inactive)	2.79 µM (inactive)	2.74 µM (inactive)	1.85 µM (inactive)	4.98 µM (inactive)	8.09 µM (inactive)	3.71 µM (inactive)	1.98	2.46 µM (inactive)	1.72 µM (inactive)	3.67 µM (inactive)	2.47 µM (inactive)	2.61 µM (inactive)	3.1 µM (inactive)	3.68 µM (inactive)	2.11 µM (inactive)
CC1CC/C(=C\c2ccc(N(C)C)cc2)C2=C1C(c1ccc(N(C)C)cc1)NC(=S)N2 (stereo unspecified)	> 100 µM (inactive)	> 100 µM (inactive)	> 100 µM (inactive)	> 100 µM (inactive)	> 100 µM (inactive)	> 100 µM (inactive)	> 100 µM (inactive)	> 100 µM (inactive)	> 100 µM (inactive)	> 100	> 100 µM (inactive)	> 100 µM (inactive)		> 100 µM (inactive)		> 100 µM (inactive)	> 100 µM (inactive)	> 100 µM (inactive)
C/C(=N\O)c1ccc(Nc2nc3ccccc3c3occc23)cc1		5.12 µM (inactive)	4 µM (inactive)	12.6 µM (inactive)	9.57 µM (inactive)	15.2 µM (inactive)	2.76 µM (inactive)	18.6 µM (inactive)	8.51 µM (inactive)	2.55		14.7 µM (inactive)	3.87 µM (inactive)	9.18 µM (inactive)	3.34 µM (inactive)	12.4 µM (inactive)	2.19 µM (inactive)	12.6 µM (inactive)
N#Cc1c(N)nc2[nH]nc(N)c2c1-c1ccc(Cl)cc1		11.9 µM (inactive)	4.95 µM (inactive)	19.3 µM (inactive)	4.8 µM (inactive)	6.75 µM (inactive)	2.65 µM (inactive)	2.56 µM (inactive)	3.84 µM (inactive)	3.82	13.8 µM (inactive)	1.42 µM (inactive)	5.66 µM (inactive)	2.5 µM (inactive)	2.56 µM (inactive)	2.34 µM (inactive)	16.9 µM (inactive)	1.88 µM (inactive)
CCOC(=O)CO/N=C\C1=CC(=O)C2CC1C2(C)C (stereo unspecified)	30.1 µM (inactive)	> 100 µM (inactive)	> 100 µM (inactive)	> 100 µM (inactive)	> 100 µM (inactive)	> 100 µM (inactive)	> 100 µM (inactive)		> 100 µM (inactive)	> 100	> 100 µM (inactive)	> 100 µM (inactive)		> 100 µM (inactive)		> 100 µM (inactive)	> 100 µM (inactive)	> 100 µM (inactive)
CCOP(=O)(OCC)C(N)Cc1ccc(OC)c(OC)c1 (stereo unspecified)	> 100 µM (inactive)	> 100 µM (inactive)	> 100 µM (inactive)	> 100 µM (inactive)	> 100 µM (inactive)	> 100 µM (inactive)	> 100 µM (inactive)		> 100 µM (inactive)	> 100	> 100 µM (inactive)	> 100 µM (inactive)	> 100 µM (inactive)		> 100 µM (inactive)	> 100 µM (inactive)	> 100 µM (inactive)	> 100 µM (inactive)
